Experimental data published in ChEMBL document CHEMBL3885881, “DrugMatrix”.

Species on record: Rattus norvegicus
Assay: DrugMatrix - Regimen: Daily Repeat
Assay type: toxicity, organism-based, Sprague-Dawley
Design: regimen Daily Repeat, gender Male, age 6-8 weeks
Settings: in vivo, po, route oral GAVAGE, vehicle .5 % CMC; for ABSOLUTE BASOPHIL / ABSOLUTE EOSINOPHIL / ABSOLUTE LYMPHOCYTE / ABSOLUTE MONOCYTE / ABSOLUTE SEGMENTED NEUTROPHIL / BASOPHIL / EOSINOPHIL / ERYTHROCYTE COUNT / HEMATOCRIT / HEMOGLOBIN / LEUKOCYTE COUNT / LYMPHOCYTE / MEAN CORPUSCULAR HEMOGLOBIN / MEAN CORPUSCULAR HEMOGLOBIN CONCENTRATION / MEAN CORPUSCULAR VOLUME / MONOCYTE / NEUTROPHIL / NUCLEATED RED BLOOD CELLS / PLATELET COUNT: tissue Blood; for ALANINE AMINOTRANSFERASE / ALBUMIN / ALKALINE PHOSPHATASE / ASPARTATE AMINOTRANSFERASE / BLOOD UREA NITROGEN / CARBON DIOXIDE / CHLORIDE / CHOLESTEROL / CREATINE PHOSPHOKINASE / CREATININE / GLUCOSE / LACTATE DEHYDROGENASE / LIPASE / PHOSPHORUS / POTASSIUM / SODIUM / TOTAL BILIRUBIN / TOTAL PROTEIN / URIC ACID: tissue Plasma
[1] = 22 mg/kg, 72 h, dose level High, time 3 day
[2] = 22 mg/kg, 120 h, dose level High, time 5 day
[3] = […], 72 h, dose 2.2 mg/Kg, dose level Low, time 3 day
[4] = […], 120 h, dose 2.2 mg/Kg, dose level Low, time 5 day

Cc1cc(C(C#N)c2ccc(Cl)cc2)c(Cl)cc1NC(=O)c1cc(I)cc(I)c1O (configuration not stated) [CLOSANTEL]
ABSOLUTE BASOPHIL [1]: 0 CELLS/uL
ABSOLUTE EOSINOPHIL [1]: 101.33 CELLS/uL
ABSOLUTE LYMPHOCYTE [1]: 16742.67 CELLS/uL
ABSOLUTE MONOCYTE [1]: 54 CELLS/uL
ABSOLUTE SEGMENTED NEUTROPHIL [1]: 802 CELLS/uL
BASOPHIL [1]: 0%
EOSINOPHIL [1]: 0.67%
ERYTHROCYTE COUNT [1]: 4.94 x10E6/uL
HEMATOCRIT [1]: 31.43%
HEMOGLOBIN [1]: 12.7 G/DL
LEUKOCYTE COUNT [1]: 17.7 x10E3/uL
LYMPHOCYTE [1]: 94.67%
MEAN CORPUSCULAR HEMOGLOBIN [1]: 25.77 pg
MEAN CORPUSCULAR HEMOGLOBIN CONCENTRATION [1]: 40.4 G/DL
MEAN CORPUSCULAR VOLUME [1]: 63.77 fL
MONOCYTE [1]: 0.33%
NEUTROPHIL [1]: 4.33%
NUCLEATED RED BLOOD CELLS [1]: 0 /100WBC
PLATELET COUNT [1]: 1110.67 x10E3/uL
ALANINE AMINOTRANSFERASE [1]: 49.67 u/L
ALBUMIN [1]: 4.27 G/DL
ALKALINE PHOSPHATASE [1]: 612.33 u/L
ASPARTATE AMINOTRANSFERASE [1]: 122.67 u/L
BLOOD UREA NITROGEN [1]: 16.33 mg/dL
CARBON DIOXIDE [1]: 27.67 mmol/L
CHLORIDE [1]: 103.67 MEQ/L
CHOLESTEROL [1]: 73 mg/dL
CREATINE PHOSPHOKINASE [1]: 369 u/L
CREATININE [1]: 0.19 mg/dL
GLUCOSE [1]: 171.33 mg/dL
LACTATE DEHYDROGENASE [1]: 163.67 u/L
LIPASE [1]: 9 u/L
PHOSPHORUS [1]: 12.43 mg/dL
POTASSIUM [1]: 6.8 MEQ/L
SODIUM [1]: 145.83 MEQ/L
TOTAL BILIRUBIN [1]: 0.2 mg/dL
TOTAL PROTEIN [1]: 5.73 G/DL
URIC ACID [1]: 2.13 mg/dL
ABSOLUTE BASOPHIL [2]: 0 CELLS/uL
ABSOLUTE EOSINOPHIL [2]: 0 CELLS/uL
ABSOLUTE LYMPHOCYTE [2]: 18393.33 CELLS/uL
ABSOLUTE MONOCYTE [2]: 203.33 CELLS/uL
ABSOLUTE SEGMENTED NEUTROPHIL [2]: 2403.33 CELLS/uL
BASOPHIL [2]: 0%
EOSINOPHIL [2]: 0%
ERYTHROCYTE COUNT [2]: 5.7 x10E6/uL
HEMATOCRIT [2]: 36.13%
HEMOGLOBIN [2]: 14.47 G/DL
LEUKOCYTE COUNT [2]: 21 x10E3/uL
LYMPHOCYTE [2]: 87.33%
MEAN CORPUSCULAR HEMOGLOBIN [2]: 25.4 pg
MEAN CORPUSCULAR HEMOGLOBIN CONCENTRATION [2]: 40.03 G/DL
MEAN CORPUSCULAR VOLUME [2]: 63.4 fL
MONOCYTE [2]: 1%
NEUTROPHIL [2]: 11.67%
NUCLEATED RED BLOOD CELLS [2]: 0.33 /100WBC
PLATELET COUNT [2]: 1280.33 x10E3/uL
ALANINE AMINOTRANSFERASE [2]: 76 u/L
ALBUMIN [2]: 4.63 G/DL
ALKALINE PHOSPHATASE [2]: 586.33 u/L
ASPARTATE AMINOTRANSFERASE [2]: 169.33 u/L
BLOOD UREA NITROGEN [2]: 25 mg/dL
CARBON DIOXIDE [2]: 32 mmol/L
CHLORIDE [2]: 101.67 MEQ/L
CHOLESTEROL [2]: 84 mg/dL
CREATINE PHOSPHOKINASE [2]: 365.33 u/L
CREATININE [2]: 0.32 mg/dL
GLUCOSE [2]: 141.67 mg/dL
LACTATE DEHYDROGENASE [2]: 335.67 u/L
LIPASE [2]: 11.67 u/L
PHOSPHORUS [2]: 11.47 mg/dL
POTASSIUM [2]: 7.16 MEQ/L
SODIUM [2]: 143.5 MEQ/L
TOTAL BILIRUBIN [2]: 0.2 mg/dL
TOTAL PROTEIN [2]: 6 G/DL
URIC ACID [2]: 1.9 mg/dL
ABSOLUTE BASOPHIL [3]: 0 CELLS/uL
ABSOLUTE EOSINOPHIL [3]: 27.33 CELLS/uL
ABSOLUTE LYMPHOCYTE [3]: 7010.67 CELLS/uL
ABSOLUTE MONOCYTE [3]: 50 CELLS/uL
ABSOLUTE SEGMENTED NEUTROPHIL [3]: 645.33 CELLS/uL
BASOPHIL [3]: 0%
EOSINOPHIL [3]: 0.33%
ERYTHROCYTE COUNT [3]: 5.2 x10E6/uL
HEMATOCRIT [3]: 33.97%
HEMOGLOBIN [3]: 13.53 G/DL
LEUKOCYTE COUNT [3]: 7.73 x10E3/uL
LYMPHOCYTE [3]: 90.33%
MEAN CORPUSCULAR HEMOGLOBIN [3]: 26.1 pg
MEAN CORPUSCULAR HEMOGLOBIN CONCENTRATION [3]: 39.83 G/DL
MEAN CORPUSCULAR VOLUME [3]: 65.4 fL
MONOCYTE [3]: 0.67%
NEUTROPHIL [3]: 8.67%
NUCLEATED RED BLOOD CELLS [3]: 0 /100WBC
PLATELET COUNT [3]: 1123.67 x10E3/uL
ALANINE AMINOTRANSFERASE [3]: 51 u/L
ALBUMIN [3]: 4.37 G/DL
ALKALINE PHOSPHATASE [3]: 453.33 u/L
ASPARTATE AMINOTRANSFERASE [3]: 101.67 u/L
BLOOD UREA NITROGEN [3]: 17.33 mg/dL
CARBON DIOXIDE [3]: 35.33 mmol/L
CHLORIDE [3]: 98.67 MEQ/L
CHOLESTEROL [3]: 78.67 mg/dL
CREATINE PHOSPHOKINASE [3]: 529.33 u/L
CREATININE [3]: 0.26 mg/dL
GLUCOSE [3]: 127 mg/dL
LACTATE DEHYDROGENASE [3]: 156.67 u/L
LIPASE [3]: 9.67 u/L
PHOSPHORUS [3]: 11.27 mg/dL
POTASSIUM [3]: 6.78 MEQ/L
SODIUM [3]: 144.6 MEQ/L
TOTAL BILIRUBIN [3]: 0.17 mg/dL
TOTAL PROTEIN [3]: 6.27 G/DL
URIC ACID [3]: 0.93 mg/dL
ABSOLUTE BASOPHIL [4]: 0 CELLS/uL
ABSOLUTE EOSINOPHIL [4]: 0 CELLS/uL
ABSOLUTE LYMPHOCYTE [4]: 9886.33 CELLS/uL
ABSOLUTE MONOCYTE [4]: 68.67 CELLS/uL
ABSOLUTE SEGMENTED NEUTROPHIL [4]: 945 CELLS/uL
BASOPHIL [4]: 0%
EOSINOPHIL [4]: 0%
ERYTHROCYTE COUNT [4]: 5.61 x10E6/uL
HEMATOCRIT [4]: 35.17%
HEMOGLOBIN [4]: 14 G/DL
LEUKOCYTE COUNT [4]: 10.9 x10E3/uL
LYMPHOCYTE [4]: 90.33%
MEAN CORPUSCULAR HEMOGLOBIN [4]: 24.93 pg
MEAN CORPUSCULAR HEMOGLOBIN CONCENTRATION [4]: 39.83 G/DL
MEAN CORPUSCULAR VOLUME [4]: 62.63 fL
MONOCYTE [4]: 0.67%
NEUTROPHIL [4]: 9%
NUCLEATED RED BLOOD CELLS [4]: 0 /100WBC
PLATELET COUNT [4]: 1205.67 x10E3/uL
ALANINE AMINOTRANSFERASE [4]: 49 u/L
ALBUMIN [4]: 4.43 G/DL
ALKALINE PHOSPHATASE [4]: 427.33 u/L
ASPARTATE AMINOTRANSFERASE [4]: 75 u/L
BLOOD UREA NITROGEN [4]: 18 mg/dL
CARBON DIOXIDE [4]: 29.67 mmol/L
CHLORIDE [4]: 103 MEQ/L
CHOLESTEROL [4]: 72.33 mg/dL
CREATINE PHOSPHOKINASE [4]: 164.33 u/L
CREATININE [4]: 0.18 mg/dL
GLUCOSE [4]: 146.67 mg/dL
LACTATE DEHYDROGENASE [4]: 113.67 u/L
LIPASE [4]: 8.33 u/L
PHOSPHORUS [4]: 13.67 mg/dL
POTASSIUM [4]: 7.15 MEQ/L
SODIUM [4]: 146.83 MEQ/L
TOTAL BILIRUBIN [4]: 0.23 mg/dL
TOTAL PROTEIN [4]: 6.6 G/DL
URIC ACID [4]: 1.7 mg/dL
